These results are taken from the supplement of paper PMC10307832.

Holding throughout (experiment): relative viability (nuclei count vs DMSO), 5 days (fraction); higher = more cells survive
Compound in the assay “MK-8033 + Palbociclib”: Cn1cc(-c2cnc3ccc4ccc(CS(=O)(=O)NCc5ccccn5)cc4c(=O)c3c2)cn1 [MK-8033] + CC(=O)c1c(C)c2cnc(Nc3ccc(N4CCNCC4)cn3)nc2n(C2CCCC2)c1=O [Palbociclib] (partner 0.5 µM)
The method in brief:
(§1)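 One day after seeding in 1536-well plates, lung cancer cell lines were dosed by pin tool. Dosing was either single-drug or a fixed anchor-drug dose plus five library-drug doses (not always all listed) in √10 steps. After 5 days, nuclei were stained in one fix-and-stain step and counted on 4× images, and relative viability is the nuclei count of treated wells over that of vehicle wells, given as the median of duplicate plates.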

Compound in the assay “Irinotecan + Navitoclax”: CCc1c2c(nc3ccc(OC(=O)N4CCC(N5CCCCC5)CC4)cc13)-c1cc3c(c(=O)n1C2)COC(=O)[C@]3(O)CC [Irinotecan] + CC1(C)CCC(c2ccc(Cl)cc2)=C(CN2CCN(c3ccc(C(=O)NS(=O)(=O)c4ccc(N[C@H](CCN5CCOCC5)CSc5ccccc5)c(S(=O)(=O)C(F)(F)F)c4)cc3)CC2)C1 [Navitoclax] (partner 0.5 µM)
The method in brief: as §1

Compound in the assay “MK-8033 + Lapatinib”: Cn1cc(-c2cnc3ccc4ccc(CS(=O)(=O)NCc5ccccn5)cc4c(=O)c3c2)cn1 [MK-8033] + CS(=O)(=O)CCNCc1ccc(-c2ccc3ncnc(Nc4ccc(OCc5cccc(F)c5)c(Cl)c4)c3c2)o1 [Lapatinib] (partner 2 µM)
The method in brief:
as §1

Compound in the assay “MK-8033 + Luminespib”: Cn1cc(-c2cnc3ccc4ccc(CS(=O)(=O)NCc5ccccn5)cc4c(=O)c3c2)cn1 [MK-8033] + CCNC(=O)c1noc(-c2cc(C(C)C)c(O)cc2O)c1-c1ccc(CN2CCOCC2)cc1 [Luminespib] (partner 0.01 µM)
The procedure, abridged:
as §1

In the case of RERF-LC-KJ, the relative viability in the assay with MK-8033 + Palbociclib (first compound 0.02 µM) amounted to 1.11; in the assay with MK-8033 + Palbociclib (first compound 0.06325 µM), 1.07; in the assay with MK-8033 + Palbociclib (first compound 0.2 µM) it was 1.01; with MK-8033 + Palbociclib (first compound 0.6325 µM), 1.08; with MK-8033 + Palbociclib (first compound 2 µM), 1.08; in the assay with Irinotecan + Navitoclax (first compound 0.6325 µM) it was 0.936. Besides, the relative viability in the assay with Irinotecan + Navitoclax (first compound 2 µM) is 1.18; with Irinotecan + Navitoclax (first compound 6.325 µM), 0.52; with Irinotecan + Navitoclax (first compound 20 µM), 0.504; with MK-8033 + Lapatinib (first compound 0.02 µM), 0.901; with MK-8033 + Lapatinib (first compound 0.06325 µM), 0.823; with MK-8033 + Lapatinib (first compound 0.2 µM) it was 0.854. For the same cell line, the relative viability in the assay with MK-8033 + Lapatinib (first compound 0.6325 µM) came to 0.798; with MK-8033 + Lapatinib (first compound 2 µM), 0.815; with MK-8033 + Luminespib (first compound 0.02 µM) it was 1.14; with MK-8033 + Luminespib (first compound 0.06325 µM), 1.14; with MK-8033 + Luminespib (first compound 0.2 µM) it was 1.25; with MK-8033 + Luminespib (first compound 0.6325 µM), 1.24. For the same cell line, the relative viability with MK-8033 + Luminespib (first compound 2 µM) was 1.06.
Regarding SK-LU-1, the relative viability stood at 0.411 in the assay with MK-8033 + Palbociclib (first compound 0.02 µM); 0.373 with MK-8033 + Palbociclib (first compound 0.06325 µM); 0.373 in the assay with MK-8033 + Palbociclib (first compound 0.2 µM); 0.367 in the assay with MK-8033 + Palbociclib (first compound 0.6325 µM); 0.383 with MK-8033 + Palbociclib (first compound 2 µM); 0.225 with Irinotecan + Navitoclax (first compound 0.6325 µM). Also, the relative viability with Irinotecan + Navitoclax (first compound 2 µM) is 0.334; with Irinotecan + Navitoclax (first compound 6.325 µM), 0.296; with Irinotecan + Navitoclax (first compound 20 µM) it was 0.263; with MK-8033 + Lapatinib (first compound 0.02 µM), 0.893; in the assay with MK-8033 + Lapatinib (first compound 0.06325 µM) it was 0.82; with MK-8033 + Lapatinib (first compound 0.2 µM), 0.879. Also, the relative viability stood at 0.807 with MK-8033 + Lapatinib (first compound 0.6325 µM); 0.859 in the assay with MK-8033 + Lapatinib (first compound 2 µM); 0.188 with MK-8033 + Luminespib (first compound 0.02 µM); 0.236 in the assay with MK-8033 + Luminespib (first compound 0.06325 µM); 0.223 with MK-8033 + Luminespib (first compound 0.2 µM); 0.188 in the assay with MK-8033 + Luminespib (first compound 0.6325 µM). Moreover, the relative viability with MK-8033 + Luminespib (first compound 2 µM) turned out to be 0.192.
With SK-MES-1, the relative viability stood at 0.333 with MK-8033 + Palbociclib (first compound 0.02 µM); 0.299 in the assay with MK-8033 + Palbociclib (first compound 0.06325 µM); 0.305 with MK-8033 + Palbociclib (first compound 0.2 µM); 0.359 with MK-8033 + Palbociclib (first compound 0.6325 µM); 0.309 with MK-8033 + Palbociclib (first compound 2 µM); 1.29 in the assay with Irinotecan + Navitoclax (first compound 0.6325 µM). Besides, the relative viability worked out at 1.22 with Irinotecan + Navitoclax (first compound 2 µM); 0.226 with Irinotecan + Navitoclax (first compound 6.325 µM); 0.208 with Irinotecan + Navitoclax (first compound 20 µM); 0.433 with MK-8033 + Lapatinib (first compound 0.02 µM); 0.437 with MK-8033 + Lapatinib (first compound 0.06325 µM); 0.478 with MK-8033 + Lapatinib (first compound 0.2 µM). Moreover, the relative viability came to 0.459 with MK-8033 + Lapatinib (first compound 0.6325 µM); 0.441 in the assay with MK-8033 + Lapatinib (first compound 2 µM); 0.628 with MK-8033 + Luminespib (first compound 0.02 µM); 0.728 with MK-8033 + Luminespib (first compound 0.06325 µM); 0.722 with MK-8033 + Luminespib (first compound 0.2 µM); 0.908 with MK-8033 + Luminespib (first compound 0.6325 µM). In addition, the relative viability with MK-8033 + Luminespib (first compound 2 µM) stood at 0.823.
For the cell line SW 1573, the relative viability worked out at 0.373 with MK-8033 + Palbociclib (first compound 0.02 µM); 0.392 with MK-8033 + Palbociclib (first compound 0.06325 µM); 0.345 with MK-8033 + Palbociclib (first compound 0.2 µM); 0.409 in the assay with MK-8033 + Palbociclib (first compound 0.6325 µM); 0.389 with MK-8033 + Palbociclib (first compound 2 µM); 0.694 in the assay with Irinotecan + Navitoclax (first compound 0.6325 µM). In addition, the relative viability was found to be 0.601 with Irinotecan + Navitoclax (first compound 2 µM); 0.139 with Irinotecan + Navitoclax (first compound 6.325 µM); 0.156 with Irinotecan + Navitoclax (first compound 20 µM); 1.06 in the assay with MK-8033 + Lapatinib (first compound 0.02 µM); 1.09 in the assay with MK-8033 + Lapatinib (first compound 0.06325 µM); 0.976 in the assay with MK-8033 + Lapatinib (first compound 0.2 µM). Further, the relative viability with MK-8033 + Lapatinib (first compound 0.6325 µM) amounted to 1.14; with MK-8033 + Lapatinib (first compound 2 µM), 0.994; with MK-8033 + Luminespib (first compound 0.02 µM) it was 0.178; with MK-8033 + Luminespib (first compound 0.06325 µM), 0.206; in the assay with MK-8033 + Luminespib (first compound 0.2 µM), 0.719; in the assay with MK-8033 + Luminespib (first compound 0.6325 µM), 0.366. Also, the relative viability with MK-8033 + Luminespib (first compound 2 µM) is 0.185.
